The NIST ThermoML archive (doi:10.1016/j.jct.2009.06.007)

What was measured:
[1] = refractive index (Na D-line) (dimensionless); xn = mol fraction of the nth substance listed; conditions: 298.15 K, 101 kPa, Liquid, Standard Abbe refractometry
[2] = xn = mol fraction of the nth substance listed; conditions: 298.15 K, 101 kPa, Liquid; for viscosity: Capillary tube (Ostwald / Ubbelohde) method; for mass density: Vibrating tube method
[3] = 298.15 K, 101.33 kPa, Liquid

CCCCCCCCn1cc[n+](C)c1.O=S(=O)([N-]S(=O)(=O)C(F)(F)F)C(F)(F)F + COC(C)=O
Conditions	mass density, [2] [kg/m3]	refractive index, [1]	viscosity, [2] [mPa·s]
x2 = 0.0699	1314.77	1.4319	75.62
x2 = 0.1317	1308.87	1.43089	63.25
x2 = 0.1748	1304.45	1.43009	56.12
x2 = 0.2177	1299.57	1.42927	49.13
x2 = 0.3226	1285.83	1.42694	33.76
x2 = 0.4105	1271.88	1.42453	23.79
x2 = 0.5011	1253.68	1.42124	15.98
x2 = 0.6001	1228.33	1.41684	9.815
x2 = 0.6992	1193.95	1.41055	5.527
x2 = 0.7872	1151.29	1.40296	3.066
x2 = 0.8984	1067.39	1.387	1.206

CCCCCCCCn1cc[n+](C)c1.O=S(=O)([N-]S(=O)(=O)C(F)(F)F)C(F)(F)F
[3]
Conditions	mass density [kg/m3]	viscosity [mPa·s]
Capillary tube (Ostwald / Ubbelohde) method	–	92.51
Pycnometric method	1320.59	–

COC(C)=O [methyl ethanoate] + CO
Conditions	mass density, [2] [kg/m3]	refractive index, [1]	viscosity, [2] [mPa·s]
x1 = 0.0939	810.62	1.3322	0.491
x1 = 0.1986	833.17	1.33757	0.452
x1 = 0.3009	851.78	1.34192	0.417
x1 = 0.4016	867.5	1.3456	0.393
x1 = 0.4943	880.02	1.34851	0.378
x1 = 0.5851	890.77	1.35095	0.369
x1 = 0.6941	902.17	1.35349	0.361
x1 = 0.7694	909.19	1.35503	0.358
x1 = 0.8875	918.93	1.35712	0.358

CCCCCCCCn1cc[n+](C)c1.O=S(=O)([N-]S(=O)(=O)C(F)(F)F)C(F)(F)F + CO
Conditions	mass density, [2] [kg/m3]	refractive index, [1]	viscosity, [2] [mPa·s]
x2 = 0.0654	1316.5	1.43207	78.34
x2 = 0.0863	1315.1	1.43188	74.57
x2 = 0.2134	1305.18	1.42995	53.65
x2 = 0.3138	1295.08	1.42809	40.77
x2 = 0.3873	1285.91	1.42619	32.92
x2 = 0.5038	1267.04	1.42266	22.27
x2 = 0.6155	1240.79	1.41741	14.57
x2 = 0.7018	1210.98	1.41157	9.493
x2 = 0.805	1154.04	1.40017	4.919
x2 = 0.902	1052.54	1.38017	2.144
